Earlier results on 1 compound are cited in US20080171790A1, “Fatty acids-systemic lipid solubilizers conjugates” (priority 2007, published 2008).

The conditions of this data set: after oral administration.

With `C[C@H](CCC(=O)O)[C@H]1CC[C@H]2[C@@H]3C[C@H](O)[C@@H]4C[C@H](O)CC[C@]4(C)[C@H]3CC[C@]12C` [hyodeoxycholic acid, Hyodeoxycholic acid], the “proportion of the administered substance excreted in the urine as a glucuronide” value was “up to 84%”.
